Reference: the supplement of paper PMC10307832

Columns and labels:
Experiment in all cases: relative viability (nuclei count vs DMSO), 5 days (fraction); higher = more cells survive
Nelarabine + Tozasertib = compound: COc1nc(N)nc2c1ncn2[C@@H]1O[C@H](CO)[C@@H](O)[C@@H]1O [Nelarabine] + Cc1cc(Nc2cc(N3CCN(C)CC3)nc(Sc3ccc(NC(=O)C4CC4)cc3)n2)n[nH]1 [Tozasertib] (partner 0.1 µM)
How it was run: (§1)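 Five library-drug doses in √10 steps were combined with a fixed anchor-drug dose, or a single drug was given alone, by pin tool to lung cancer cell lines in 1536-well plates the day after seeding. Nuclei were stained and counted after 5 days. Relative viability is the nuclei count in treated wells over that in vehicle wells, taken as the median of duplicate plates.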

Nelarabine + Palbociclib = compound: COc1nc(N)nc2c1ncn2[C@@H]1O[C@H](CO)[C@@H](O)[C@@H]1O [Nelarabine] + CC(=O)c1c(C)c2cnc(Nc3ccc(N4CCNCC4)cn3)nc2n(C2CCCC2)c1=O [Palbociclib] (partner 0.5 µM)
How it was run: as §1

Nelarabine + Alpelisib = compound: COc1nc(N)nc2c1ncn2[C@@H]1O[C@H](CO)[C@@H](O)[C@@H]1O [Nelarabine] + Cc1nc(NC(=O)N2CCC[C@H]2C(N)=O)sc1-c1ccnc(C(C)(C)C(F)(F)F)c1 [Alpelisib] (partner 2 µM)
How it was run: as §1

Nelarabine + Phenformin = compound: COc1nc(N)nc2c1ncn2[C@@H]1O[C@H](CO)[C@@H](O)[C@@H]1O [Nelarabine] + N=C(N)NC(=N)NCCc1ccccc1 [Phenformin] (partner 250 µM)
How it was run: as §1

Cell Line | relative viability (Nelarabine + Tozasertib; first compound 0.01 µM) | relative viability (Nelarabine + Tozasertib; first compound 0.03162 µM) | relative viability (Nelarabine + Tozasertib; first compound 0.3162 µM) | relative viability (Nelarabine + Tozasertib; first compound 1 µM) | relative viability (Nelarabine + Palbociclib; first compound 0.01 µM) | relative viability (Nelarabine + Palbociclib; first compound 0.03162 µM) | relative viability (Nelarabine + Palbociclib; first compound 0.3162 µM) | relative viability (Nelarabine + Palbociclib; first compound 1 µM) | relative viability (Nelarabine + Alpelisib; first compound 0.01 µM) | relative viability (Nelarabine + Alpelisib; first compound 0.03162 µM) | relative viability (Nelarabine + Alpelisib; first compound 0.3162 µM) | relative viability (Nelarabine + Alpelisib; first compound 1 µM) | relative viability (Nelarabine + Phenformin; first compound 0.01 µM) | relative viability (Nelarabine + Phenformin; first compound 0.03162 µM) | relative viability (Nelarabine + Phenformin; first compound 0.3162 µM) | relative viability (Nelarabine + Phenformin; first compound 1 µM) | relative viability (Nelarabine + Tozasertib; first compound 0.1 µM) | relative viability (Nelarabine + Palbociclib; first compound 0.1 µM) | relative viability (Nelarabine + Alpelisib; first compound 0.1 µM) | relative viability (Nelarabine + Phenformin; first compound 0.1 µM)
NCI-H3122 | 0.547 | 0.403 | 0.434 | 0.534 | 0.194 | 0.145 | 0.201 | 0.207 | 0.898 | 0.569 | 0.881 | 0.761 | 0.381 | 0.356 | 0.412 | 0.358 | – | – | – | –
PC-3 [JPC-3] | 1.02 | 0.747 | 0.891 | 0.899 | 0.562 | 0.544 | 0.526 | 0.533 | 1.14 | 0.993 | 1.05 | 0.986 | 0.475 | 0.437 | 0.472 | 0.459 | 0.934 | 0.524 | 1.06 | 0.473
PC-14 | 0.625 | 0.645 | 0.599 | 0.631 | 0.705 | 0.53 | 0.601 | 0.706 | 0.857 | 0.97 | 1.04 | 0.947 | 0.645 | 0.46 | 0.556 | 0.447 | 0.597 | 0.582 | 1.02 | 0.67
RERF-LC-KJ | 0.558 | 0.483 | 0.5 | 0.513 | 1.13 | 1.17 | 1.17 | 0.97 | 0.944 | 0.889 | 0.861 | 1.09 | 0.436 | 0.427 | 0.403 | 0.425 | 0.456 | 1.09 | 0.909 | 0.403
SK-LU-1 | 0.307 | 0.198 | 0.323 | 0.332 | 0.456 | 0.276 | 0.376 | 0.377 | 1.36 | 0.608 | 1.22 | 1 | 0.564 | 0.364 | 0.679 | 0.499 | 0.298 | 0.352 | 0.87 | 0.553
SK-MES-1 | 1 | 0.89 | 0.924 | 0.937 | 0.3 | 0.327 | 0.316 | 0.354 | 1.01 | 1 | 0.964 | 0.948 | 0.705 | 0.658 | 0.757 | 0.684 | 0.944 | 0.305 | 0.937 | 0.643
SW 1573 | 0.167 | 0.199 | 0.23 | 0.162 | 0.465 | 0.382 | 0.399 | 0.338 | 0.57 | 0.848 | 0.806 | 0.818 | 0.548 | 0.422 | 0.356 | 0.389 | 0.134 | 0.41 | 0.803 | 0.406
UMC-11 | 0.185 | 0.204 | 0.206 | 0.204 | 0.361 | 0.269 | 0.332 | 0.351 | 1.1 | 0.597 | 1.02 | 0.96 | 0.33 | 0.325 | 0.294 | 0.31 | 0.378 | 0.318 | 0.909 | 0.347
